Laboratory results published in article PMC12010937, “Evaluation of FXR Activity in Pollutants Identified in Sewage Sludge and Subsequent in Vitro and in Vivo Characterization of Metabolic Effects of Triphenyl Phosphate” (Environmental Health Perspectives, 2025).
Where “and” joins values, the source holds several entries; their conditions need not be identical. Identical values can stand only once. Like-named read-outs stand apart in the source and are kept apart here.

What was measured:
[1] = target: T1, human FXR-LBD (GST-FXR-LBD) (Homo sapiens, UniProt Q96RI1); experiment: HTRF coactivator recruitment assay, agonist mode; assay type: biochemical; conditions: for Ratio of 665nm/615nm: FXR agonists (Figure S3A), replicates
T1 construct: the human FXR-LBD (residues 234–472) was expressed as a GST fusion protein GST-FXR-LBD; made in house; host or cells: E. coli BL21(DE3)
T1 sequence (Q96RI1 234-472 isoform Q96RI1-2): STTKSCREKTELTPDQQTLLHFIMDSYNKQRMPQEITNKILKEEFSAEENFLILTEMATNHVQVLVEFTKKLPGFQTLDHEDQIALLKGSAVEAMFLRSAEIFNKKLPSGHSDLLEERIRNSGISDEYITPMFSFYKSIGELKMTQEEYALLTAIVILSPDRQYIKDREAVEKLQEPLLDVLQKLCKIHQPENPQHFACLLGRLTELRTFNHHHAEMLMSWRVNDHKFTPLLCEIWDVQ

[2] = target: T1, human FXR-LBD (GST-FXR-LBD); experiment: HTRF coactivator recruitment assay, antagonist mode (in the presence of 50 μM CDCA); assay type: biochemical; conditions: for Ratio of 665nm/615nm: FXR antagonists (Figure S3B); for activity at 1.95 µM: 1.95 μM compound + 50 μM CDCA; for activity at 3.9 µM: 3.90 μM compound + 50 μM CDCA; for activity at 31.25 µM: 31.25 μM compound + 50 μM CDCA; for activity at 62.5 µM: 62.50 μM compound + 50 μM CDCA; for IC50: read-out: IC50, inhibition of CDCA-induced coactivator recruitment to FXR
FXR = tested on: FXR; parameters: method as in PMID 12166927; conditions: read-out: EC50 (FXR agonist); cited from earlier work
[3] = target: T2, human FXR-LBD (6His-FXR-LBD) (Homo sapiens, UniProt Q96RI1); experiment: FXR protein affinity pull-down assay; assay type: binding; conditions: 100 nM OCA
T2 construct: human FXR (residues 243–472) was expressed and purified as an amino-terminal 6His fusion protein; made in house; host or cells: E. coli BL21(DE3)
T2 sequence (Q96RI1 243-472 isoform Q96RI1-2): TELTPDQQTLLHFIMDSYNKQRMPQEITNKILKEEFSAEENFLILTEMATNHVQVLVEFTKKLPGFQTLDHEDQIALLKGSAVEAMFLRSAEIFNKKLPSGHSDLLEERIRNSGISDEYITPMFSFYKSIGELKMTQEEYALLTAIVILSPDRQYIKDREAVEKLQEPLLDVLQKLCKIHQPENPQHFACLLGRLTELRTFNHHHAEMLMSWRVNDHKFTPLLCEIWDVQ
Source text: The ligand binding domain (LBD) of human FXR (residues 243–472) was expressed and purified as an amino-terminal 6His fusion protein based on the prokaryotic expression vector pACYCDuet-1, and the pACYCDuet-1-6His-FXR-LBD plasmid was synthesized by the Beijing Genomics Institute (BGI). In detail, the gene encoding human FXR-LBD was first synthesized by BGI and then subcloned into the pACYCDuet-1 vector predigested with BamHI/NotI (SE0054/SE0594; SibEnzyme) according to the manufacturer’s protocol. In brief, the vector was predigested at 37°C for 15 min, subsequently mixed with the synthesized FXR-LBD cDNA and seamless assembly mix (BGI), and incubated at 52°C for 30 min. Then, the new plasmid construct pACYCDuet-1-6His-FXR-LBD was transformed into Escherichia coli Top10 Competent Cells (BGI) by heat shock transformation (the mixture was incubated on ice for 30 min, then incubated at 42°C for 90 s and transferred to ice for 3 min). Finally, the pACYCDuet-1-6His-FXR-LBD plasmid were extracted from the positive clone, confirmed by sequencing and provided by BGI. The pACYCDuet-1-6His-FXR-LBD plasmid was transformed into E. coli BL21(DE3) cells (Tiangen Biotech) by heat shock transformation (the mixture was incubated on ice for 30 min, then incubated at 42°C for 90 s, and then transferred to ice for 3 min). The transformed E. coli was grown in lysogeny broth (LB) medium at 37°C to OD600 about 0.8–1.0, and then protein expression was induced with 0.5 mM isopropyl β-d-1-thiogalactopyranoside (IPTG) at 25°C for 5 h. The cells were harvested by centrifugation at 4°C and 5,000×g for 10 min, and the harvested cells were subjected to ultrasonic disruption (5 s on, 7 s off, 150 cycles) using an ultrasonic homogenizer (Ningbo Scientz Biotechnology) and centrifugation at 4°C and 12,000×g for 1 h. […] Finally, the purity of the 6His-FXR-LBD protein was detected by sodium dodecyl sulfate-polyacrylamide gel electrophoresis (SDS-PAGE) with 4%–15% Bis-tris SDS-PAGE gel (Sangon Biotech), which was stained with Coomassie brilliant blue R250 Protein Stain Reagent (Coolaber). […]

[4] = target: T3, FXR (pCDNA3.1-hFXR, FXRE-luc) (Homo sapiens, UniProt Q96RI1); experiment: cell-based; assay type: cell-based; conditions: for Relative luciferase activity (%): DMSO 0%, 50 μM CDCA 100%, replicates
T3 construct: host or cells: HEK 293T
T3 sequence (Q96RI1 1-486): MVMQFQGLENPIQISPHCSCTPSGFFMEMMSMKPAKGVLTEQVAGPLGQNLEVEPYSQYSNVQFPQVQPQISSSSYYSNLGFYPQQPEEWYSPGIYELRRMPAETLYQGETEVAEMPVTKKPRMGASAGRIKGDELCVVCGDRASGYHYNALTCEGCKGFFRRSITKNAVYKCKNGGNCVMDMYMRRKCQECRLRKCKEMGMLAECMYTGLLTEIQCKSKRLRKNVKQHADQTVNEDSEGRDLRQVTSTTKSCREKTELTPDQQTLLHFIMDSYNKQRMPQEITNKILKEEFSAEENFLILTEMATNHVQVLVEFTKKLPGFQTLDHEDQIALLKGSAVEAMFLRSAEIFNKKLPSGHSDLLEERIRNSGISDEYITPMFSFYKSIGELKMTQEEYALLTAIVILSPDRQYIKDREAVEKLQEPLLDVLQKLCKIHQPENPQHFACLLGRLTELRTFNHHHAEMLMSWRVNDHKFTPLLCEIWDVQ

[5] = replicates, read-out: Relative antagonist activity (%)
[6] = read-out: Relative antagonist activity (%)

CC[C@H]1[C@@H](O)[C@@H]2[C@H](CC[C@]3(C)[C@@H]([C@H](C)CCC(=O)O)CC[C@@H]23)[C@@]2(C)CC[C@@H](O)C[C@@H]12 [OCA, obeticholic acid]
Ratio of 665nm/615nm ([1]; 0.008 μM): […] | Ratio of 665nm/615nm ([1]; 0.025 μM): […] | Ratio of 665nm/615nm ([1]; 0.076 μM): […] | Ratio of 665nm/615nm ([1]; 0.23 μM): […] | Ratio of 665nm/615nm ([1]; 0.69 μM): […] | Ratio of 665nm/615nm ([1]; 2.05 μM): […] | Ratio of 665nm/615nm ([1]; 18.50 μM): […] | Ratio of 665nm/615nm ([1]; 56.00 μM): […] | Ratio of 665nm/615nm ([1]; 167.00 μM): […] | Ratio of 665nm/615nm ([2]; 0.0009 μM, replicates): […] | Ratio of 665nm/615nm ([2]; 0.008 μM, replicates): […] | Ratio of 665nm/615nm ([2]; 0.025 μM, replicates): […] | Ratio of 665nm/615nm ([2]; 0.076 μM, replicates): […] | Ratio of 665nm/615nm ([2]; 0.23 μM, replicates): […] | Ratio of 665nm/615nm ([2]; 0.69 μM, replicates): […] | Ratio of 665nm/615nm ([2]; 2.05 μM, replicates): […] | Ratio of 665nm/615nm ([2]; 18.50 μM, replicates): […] | Ratio of 665nm/615nm ([2]; 56.00 μM, replicates): […] | Ratio of 665nm/615nm ([2]; 167.00 μM, replicates): […] | EC50 (FXR): […] | Fold change of OCA recovery, purified vs denatured FXR-LBD [3]: […] | Recovery of OCA pulled down by control protein ([3]; boiled inactivated (denatured) FXR-LBD as negative control, n=3): 4.69% and 4.09% and 4.45% | Recovery of OCA pulled down by the FXR-LBD protein ([3]; purified 6His-FXR-LBD, n=3): 91.28% and 89.1% and 85.93%

Oc1cc(Cl)ccc1Oc1ccc(Cl)cc1Cl [TLS, triclosan]
Relative activity, agonist mode [1]: 13.3% and 13.26% | activity at 1.95 µM [2, 5]: 91.4% | activity at 3.9 µM [2, 5]: 87.5% | activity at 31.25 µM [2, 5]: 34.6% | Relative activity, antagonist mode ([2]; 50 μM compound in the presence of 50 μM CDCA, standardized against positive control DY268 (50 μM = 100%)): 65.82% | activity at 62.5 µM [2, 5]: 4.81% | IC50 [2]: 28.2 µM | activity at 0.98 µM [2, 6]: 91% | activity at 7.8 µM [2, 6]: 79.8% | activity at […] [2, 6]: 61.3% | Luciferase activity compared with DMSO control (in words) [4]: significantly less luciferase activity | activity at 10 µM ([4]; HEK-293T, read-out: Relative luciferase activity (%)): 24.8%

Clc1ccc(COC(Cn2ccnc2)c2ccc(Cl)cc2Cl)c(Cl)c1 (stereo not shown) [MCZ, miconazole]
Relative activity, agonist mode ([1]; 50 μM compound, standardized against positive control CDCA (50 μM = 100%)): 0.00% | activity at 0.98 µM ([2]; 0.98 μM compound + 50 μM CDCA, replicates, read-out: Relative antagonist activity (%)): 101% | activity at 1.95 µM [2, 5]: 96.5% | activity at 3.9 µM [2, 5]: 92.9% | activity at 7.8 µM ([2]; 7.80 μM compound + 50 μM CDCA, replicates, read-out: Relative antagonist activity (%)): 77.8% | activity at 31.25 µM [2, 5]: 31.7% | activity at 62.5 µM [2, 5]: 15.9% | activity at 125 µM ([2]; 125.00 μM compound + 50 μM CDCA, replicates, read-out: Relative antagonist activity (%)): 4.54% | activity at 250 µM ([2]; 250.00 μM compound + 50 μM CDCA, standardized to DMSO and 50 μM CDCA, replicates, read-out: Relative antagonist activity (%)): 2.51% | activity at […] ([2]; […] compound + 50 μM CDCA, replicates, read-out: Relative antagonist activity (%)): 61.6% | IC50 [2]: 20.5 µM | Luciferase activity compared with DMSO control (in words) ([4]; 10 μM and 25 μM, in the presence of 50 μM CDCA, HEK 293T): significantly less luciferase activity | Relative luciferase activity (%) ([4]; 10 μM compound in the presence of 50 μM CDCA, HEK 293T): 93.6% and 60.3% and 85.8% | Relative luciferase activity (%) ([4]; 25 μM compound in the presence of 50 μM CDCA, HEK 293T): 77.5% and 67.2% and 91.8%
